We go through 37 molecules from US11046686B2, “Thiadiazole IRAK4 compounds” (Gilead Sciences, Inc., priority 2018, dated 2021).

Molecules are shown by their SMILES.

For one assay, the system named is TNFα. The assay can be described thus: IRAK4 Monocyte TNFα Cell Based Assay. The arrangement: species or system human. Particulars: Homo sapiens, Monocyte, human monocytes, LPS stimulated; compounds 1-32; read-out: EC50 TNF. Here is the method:
IRAK4 Monocyte TNFα Cell Based Assay Procedure:
The cell suspension was then plated at a density of 5,000 cells/well onto black 384 well Greiner clear bottom plates. Plates were pre-spotted with test compounds and serially diluted in DMSO where 40 nL/well were delivered using the Echo 550 acoustic liquid dispenser (Labcyte®) for a final DMSO concentration of 0.1%. Plated cells were treated with compound for 1 hour at 37° C. Cells were then stimulated with 50 pg/ml of LPS (Sigma) excluding outside columns of plate used for unstimulated cell control wells. Cells were incubated for an additional 4 hours at 37° C. Cells were then spun out of the media and 5 μl of sample were taken and analyzed for total TNFα content using the TR-FRET Human TNFα detection system (CisBio). This system utilizes two labeled antibodies (cryptate and XL665) that bind to two different epitopes of the TNFα molecule and produce FRET signal proportional to the concentration of TNFα in the sample. Detection antibodies are mixed 50:50 and 5 μL were dispensed into each well. Plates were covered with clear seals and incubated at room temp overnight. […] Percent of control was calculated as follows: % Control=100×(Ratiosample−Ratio0% stimulation)/(Ratio100% Stimulation−Ratio0% Stimulation) where unstimulated cells (0% stimulation) were the negative control and stimulated cells (100% stimulation) were used as the positive control.
`CC(=O)NC1CCN(C(=O)c2nnc(-c3cnc(-c4ccc5cc(C#N)cnn45)cc3NC(C)C)s2)CC1` [Example 8, N-(1-(5-(6-(3-cyanopyrrolo[1,2-b]pyridazin-7-yl)-4-(isopropylamino)pyridin-3-yl)-1,3,4-thiadiazole-2-carbonyl)piperidin-4-yl)acetamide]: the concentration for a half-maximal effect (EC50) (as a rule, the concentration needed to bring the measured effect to its halfway point) was found to be 7540 nM.
Take `CC(C)Nc1cc(-c2ccc3cc(C#N)cnn23)ncc1-c1nnc(C(=O)N2CCCC2)s1` [Example 9, 7-(4-(isopropylamino)-5-(5-(pyrrolidine-1-carbonyl)-1,3,4-thiadiazol-2-yl)pyridin-2-yl)pyrrolo[1,2-b]pyridazine-3-carbonitrile]: the 50% effective concentration (EC50) worked out at 2130 nM.
`CC(=O)N[C@H]1CC[C@H](c2nnc(-c3cnc(-c4ccc5cc(C#N)cnn45)cc3NC(C)C)s2)CC1` [Example 24, N-((1r,4r)-4-(5-(6-(3-cyanopyrrolo[1,2-b]pyridazin-7-yl)-4-(isopropylamino)pyridin-3-yl)-1,3,4-thiadiazol-2-yl)cyclohexyl)acetamide]: the half-maximal effective concentration (EC50) amounted to 14 nM.
For `CC(C)Nc1cc(-c2ccc3cc(C#N)cnn23)ncc1-c1nnc(N2CCCC2)s1` [Example 29, 7-(4-(isopropylamino)-5-(5-(pyrrolidin-1-yl)-1,3,4-thiadiazol-2-yl)pyridin-2-yl)pyrrolo[1,2-b]pyridazine-3-carbonitrile], the EC50 was 4180 nM.

The same assay, now with this note: human monocytes, LPS stimulated; compounds 1-32; read-out: EC50 TNF.
As to `CC(C)Nc1cc(-c2ccc3cc(C#N)cnn23)ncc1-c1nnc(C2CCOCC2)s1` [Example 32], the EC50 amounted to 211 nM.

The assay is the same for the next values; noted with them: human monocytes; second part of Table 2, compounds 33-343; unit inferred; read-out: EC50 MONO TNF HTRF.
Regarding `CC(C)Nc1cc(-c2ccc3cc(C#N)cnn23)ncc1-c1nnc(CC#N)s1` [Compound 321], the EC50 came out at 53.5 nM.
Consider `CC(C)Nc1cc(-c2ccc3cc(C#N)cnn23)ncc1-c1nnc(C2CCOC2)s1` (stereo not shown) [Compound 322], for which the concentration giving a half-maximal response (EC50) stood at 419 nM.
With `CC(=O)N[C@H]1CN(c2nnc(-c3cnc(-c4ccc5cc(C#N)cnn45)cc3NC(C)C)s2)CC12CC2` [Compound 323], the EC50 turned out to be 3.7 nM.
On to `CC(=O)N[C@@H]1CN(c2nnc(-c3cnc(-c4ccc5cc(C#N)cnn45)cc3NC(C)C)s2)CC12CC2` [Compound 324], for which the concentration giving a half-maximal response (EC50) amounted to 19.1 nM.
Consider `CC(C)Nc1cc(-c2ccc3cc(C#N)cnn23)ncc1-c1nnc(-n2cccn2)s1` [Compound 325], for which the concentration giving a half-maximal response (EC50) turned out to be 1000 nM.
With `CC(=O)NC1CN(c2nnc(-c3cnc(-c4ccc5cc(C#N)cnn45)cc3NC(C)C)s2)CC1(F)F` (stereo not shown) [Compound 327], the EC50 is 10.2 nM.
Take `CC(C)Nc1cc(-c2ccc3cc(C#N)cnn23)ncc1-c1nnc(N2CC(N3CCC(F)(F)C3)C2)s1` [Compound 328]: the EC50 came out at 80.5 nM.
On to `CC(C)Nc1cc(-c2ccc3cc(C#N)cnn23)ncc1-c1nnc(N2CCC[C@H]2CO)s1` [Compound 329], for which the EC50 was 54.2 nM.
`CC(=O)N[C@@H]1CCN(c2nnc(-c3cnc(-c4ccc5cc(C#N)cnn45)cc3NC(C)C)s2)C1` [Compound 330]: the EC50 came to 47.1 nM.
With `CC(=O)N[C@H]1CCN(c2nnc(-c3cnc(-c4ccc5cc(C#N)cnn45)cc3NC(C)C)s2)C1` [Compound 331], the EC50 was found to be 81.4 nM.
Regarding `CC(C)Nc1cc(-c2ccc3cc(C#N)cnn23)ncc1-c1nnc(C2CCC(C#N)CC2)s1` (stereo not shown) [Compound 333], the half-maximal effective concentration (EC50) turned out to be 1000 nM.
Still for that read-out and setting: the figure for `CC(=O)NC12CCC(c3nnc(-c4cnc(-c5ccc6cc(C#N)cnn56)cc4NC4COC4)s3)(C1)C2` [Compound 334] is 98.9 nM; for `CC(C)(O)C(=O)NC12CCC(c3nnc(-c4cnc(-c5ccc6cc(C#N)cnn56)cc4NC4COC4)s3)(C1)C2` [Compound 335] it is 48.9 nM.
As to `CS(C)(=O)=NCC(=O)NC12CCC(c3nnc(-c4cnc(-c5ccc6cc(C#N)cnn56)cc4NC4CCOCC4)s3)(CC1)CC2` [Compound 338], the concentration for a half-maximal effect (EC50) was 2.7 nM.
For the molecule `CC(C)Nc1cc(-c2ccc3cc(C#N)cnn23)ncc1-c1nnc([C@H]2CC[C@H](NC(=O)CN=S(C)(C)=O)CC2)s1` [Compound 339], the EC50 was 9.1 nM.
Still for that read-out and setting: the figure for `CC(C)Nc1cc(-c2ccc3cc(C#N)cnn23)ncc1-c1nnc([C@H]2CC[C@H](NC(=O)C3CCN(C)CC3)CC2)s1` [Compound 340] is 9.1 nM; for `CC(C)Nc1cc(-c2ccc3cc(C#N)cnn23)ncc1-c1nnc(C2CCC(NC(=O)C(C)(C)C(=O)O)CC2)s1` (stereo not shown) [Compound 341] it is 72.4 nM; for `COC(=O)N[C@H]1CC[C@H](Nc2cc(-c3ccc4cc(C#N)cnn34)ncc2-c2nnc([C@H]3CC[C@H](NC(C)=O)CC3)s2)CC1` [Example 34, methyl ((1R,4r)-4-((5-(5-((1r,4R)-4-acetamidocyclohexyl)-1,3,4-thiadiazol-2-yl)-2-(3-cyanopyrrolo[1,2-b]pyridazin-7-yl)pyridin-4-yl)amino)cyclohexyl)carbamate] it is 4.9 nM.
Turning to `CC(=O)N[C@@H]1[C@@H]2CC[C@H]1CN(c1nnc(-c3cnc(-c4ccc5cc(C#N)cnn45)cc3NC(C)C)s1)C2` [Example 38], the 50% effective concentration (EC50) is 3.5 nM.
Consider `CC(=O)N[C@H]1[C@@H]2CC[C@H]1CN(c1nnc(-c3cnc(-c4ccc5cc(C#N)cnn45)cc3NC(C)C)s1)C2` [Example 39], for which the EC50 is 10.4 nM.
The same measure, in the same setting: the same measure for `CC(=O)NC[C@H]1CCCN1C(=O)c1nnc(-c2cnc(-c3ccc4cc(C#N)cnn34)cc2NC(C)C)s1` [Example 42]: 35.7 nM; for `COC(=O)N[C@H]1CCN(C(=O)c2nnc(-c3cnc(-c4ccc5cc(C#N)cnn45)cc3NC(C)C)s2)C1` [Example 43, methyl (S)-(1-(5-(6-(3-cyanopyrrolo[1,2-b]pyridazin-7-yl)-4-(isopropylamino)pyridin-3-yl)-1,3,4-thiadiazole-2-carbonyl)pyrrolidin-3-yl)carbarnate]: 21.9 nM; for `CC(=O)N[C@H]1[C@@H]2C[C@H]1CN(c1nnc(-c3cnc(-c4ccc5cc(C#N)cnn45)cc3NC(C)C)s1)C2` [Example 45]: 11.8 nM.
As to `CC(C)Nc1cc(-c2ccc3cc(C#N)cnn23)ncc1-c1nnc(C(=O)N2CC[C@@H](NC(=O)C3CC3)C2)s1` [Example 47], the half-maximal effective concentration (EC50) turned out to be 5680 nM.
As to `COC(=O)NC[C@H]1C[C@H](Nc2cc(-c3ccc4cc(C#N)cnn34)ncc2-c2nnc(N3CCN4CCOC[C@H]4C3)s2)C1` [Example 51, methyl (((1R,3r)-3-((2-(3-cyanopyrrolo[1,2-b]pyridazin-7-yl)-5-(5-((R)-hexahydropyrazino[2,1-c][1,4]oxazin-8(1H)-yl)-1,3,4-thiadiazol-2-yl)pyridin-4-yl)amino)cyclobutyl)methyl)carbamate], the EC50 is 4.7 nM.
Turning to `COC(=O)NC[C@H]1C[C@H](Nc2cc(-c3ccc4cc(C#N)cnn34)ncc2-c2nnc(N3C[C@H]4CC[C@@H](C3)[C@@H]4NC(C)=O)s2)C1` [Example 52], the concentration for a half-maximal effect (EC50) came out at 4.1 nM.
On the same count and under the same terms, the same measure for `CC(=O)N[C@@H]1[C@@H]2CC[C@H]1CN(c1nnc(-c3cnc(-c4ccc5cc(C#N)cnn45)cc3N[C@H](C)C#N)s1)C2` [Example 53, N-((1R,5S,8S)-3-(5-(4-(((R)-1-cyanoethyl)amino)-6-(3-cyanopyrrolo[1,2-b]pyridazin-7-yl)pyridin-3-yl)-1,3,4-thiadiazol-2-yl)-3-azabicyclo[3.2.1]octan-8-yl)acetamide]: 0.6 nM; for `COC(=O)N[C@H]1CC[C@H](Nc2cc(-c3ccc4cc(C#N)cnn34)ncc2-c2nnc(N3C[C@H]4CC[C@@H](C3)[C@@H]4NC(C)=O)s2)CC1` [Example 54, methyl ((1R,4r)-4-((5-(5-((1R,5S,8S)-8-acetamido-3-azabicyclo[3.2.1]octan-3-yl)-1,3,4-thiadiazol-2-yl)-2-(3-cyanopyrrolo[1,2-b]pyridazin-7-yl)pyridin-4-yl)amino)cyclohexyl)carbamate]: 2.4 nM.
Turning to `CC(=O)N[C@H]1C[C@H]2CC[C@@H](C1)N2c1nnc(-c2cnc(-c3ccc4cc(C#N)cnn34)cc2NC(C)C)s1` [Example 55, N-((1R,3r,5S)-8-(5-(6-(3-cyanopyrrolo[1,2-b]pyridazin-7-yl)-4-(isopropylamino)pyridin-3-yl)-1,3,4-thiadiazol-2-yl)-8-azabicyclo[3.2.1]octan-3-yl)acetamide], the EC50 was found to be 115 nM.
On the same count and under the same terms, the same measure for `CC(=O)N[C@@H]1C[C@H]2CC[C@@H](C1)N2c1nnc(-c2cnc(-c3ccc4cc(C#N)cnn34)cc2NC(C)C)s1` [Example 56, N-((1R,3s,5S)-8-(5-(6-(3-cyanopyrrolo[1,2-b]pyridazin-7-yl)-4-(isopropylamino)pyridin-3-yl)-1,3,4-thiadiazol-2-yl)-8-azabicyclo[3.2.1]octan-3-yl)acetamide]: 8.3 nM; for `CC(C)Nc1cc(-c2ccc3cc(C#N)cnn23)ncc1-c1nnc(N2C[C@H]3CC[C@@H](C2)[C@@H]3NC(=O)N2CCOCC2)s1` [Example 57, N-((1R,5S,8s)-3-(5-(6-(3-cyanopyrrolo[1,2-b]pyridazin-7-yl)-4-(isopropylamino)pyridin-3-yl)-1,3,4-thiadiazol-2-yl)-3-azabicyclo[3.2.1]octan-8-yl)morpholine-4-carboxamide]: 6.8 nM.
Turning to `CC(C)Nc1cc(-c2ccc3cc(C#N)cnn23)ncc1-c1nnc(N2C[C@H]3CC[C@@H](C2)[C@@H]3NS(C)(=O)=O)s1` [Example 58, N-((1R,5S,8s)-3-(5-(6-(3-cyanopyrrolo[1,2-b]pyridazin-7-yl)-4-(isopropylamino)pyridin-3-yl)-1,3,4-thiadiazol-2-yl)-3-azabicyclo[3.2.1]octan-8-yl)methanesulfonamide], the EC50 is 9.3 nM.
